Experimental findings from patent US20200223839A1, “FLUORO-CONTAINING COMPOUNDS, USE AND PREPARATION THEREOF” (JIANGSU YINGKEBEITA YIYAOKEJI CO. LTD, priority 2017, published 2020) are described below.

Each structure is given as a SMILES string.

In data set [1] the test system is HCC1937. Kind of data set: Cell culture and cytotoxicity assay (CTG), HCC1937. It counts as cell-based. As to conditions: Homo sapiens, HCC1937, exposure 72 hours. How it is done:
(§1) The assayed compounds each was dissolved in DMSO with a final concentration of 10 mM or 40 mM and stored at −20° C. Tumor cell lines A549 (7,000 cells/well), BT474 (12,000 cells/well), MDA-MB-468 (12,000 cells/well), and HCC1937 (6,000 cells/well) were seeded on 96-well plates. And the cells were pre-incubated at 37° C./5% CO2 for 24 hours. The cells were exposed to different concentrations of the assay compounds (from 400 μM to 782 nM, from 200 μM to 391 nM, from 100 μM to 196 nM, and from 50 μM to 98 nM) for the following time:
(§2) After incubation, 100 μL from each well was discarded and CTG base (Proega, G7571, 50 μL) was added and the mixture was agitated for 2 minutes. The mixtures were stored in a dark room for 10 minutes and the viability was analyzed with Multiskan microplate reader.

Data set [2] relates to MDA-MB-468. As to the kind of experiment: Cell culture and cytotoxicity assay (CTG), MDA-MB-468. The note with it: Homo sapiens; MDA-MB-468, exposure 72 hours, CTG. In kind it is cell-based, human. As for the experimental part:
as §1, §2

In data set [3] the test system is BT474. As to the kind of experiment: Cell culture and cytotoxicity assay (CTG), BT474. In kind it is cell-based. The note with it: Homo sapiens, BT-474, BT474, exposure 96 hours. As for the experimental part: as §1, §2
The test system of data set [4] is MDA-MB-468 cell line. Kind of data set: Anti-tumor activity against MDA-MB-468 cell line (CCK-8 test). In kind it is cell-based. As to conditions: Homo sapiens, MDA-MB-468, 72 h. How it is done:
A cryo tube was removed from liquid nitrogen. As quickly as possible, the cells were thawed by placing the vial in a 37° C. water bath and gently shaking the vials. The cells were transferred to medium tube, which containing 5 mL medium, and were centrifuged at 1000 rpm for 6 min. The supernatant containing dead cells and cell debris was discarded. 1 mL of pre-warmed medium with 10% FBS was add and the solution was re-suspended. The plate was placed in 37° C. and 5% CO2 incubator. The medium was changed next day.
Cells in logarithmic growth stage were taken and culture medium was discarded. 1 mL 0.25% trypsin solution was added for twice. The trypsin solution was removed and the 0.5 ml 0.25% trypsin solution was added to the cell flask. The plate was placed in 37° C. and 5% CO2 incubator for a few minutes until the cells recovered. 1 mL medium was added to stop digestion. The liquid was transferred by pipette for experiment.
the cells were suspended and the medium was discarded. 1 mL 0.25% trypsin solution was added for twice and the trypsin digestion was centrifuged. The cells were suspended with the culture medium, count and adjusted to the appropriate concentration.
The cell suspension was added to the 96-well plate with a volume of 100 uL per well, as shown in Tab. 5, and was placed in 37° C., 5% CO2 incubator overnight.
Preparation of Compounds Working Solution.
The test compounds were dissolved in DMSO at 10 mM with sterile filter (0.22 um, nelon, JET). After filtering, the solution were continuously diluted by three times with DMSO. A total of six concentration were prepared, as shown below.
6 uL compound solution was added to 594 uL medium and the solution was added to 96-well plate as shown and cultured for 72 h in CO2 incubator.
A CCK-8 solution was prepared according to the instructions and the 96-well plate was taken out and the original medium discarded. 100 uL cck-8 solution was added to each well in the 96-well plate. Photoabsorption data were read by TECAN enzyme marker after a period of time.
IC (%)=[Ac-As]/[Ac-Ab]*100% • As: Experimental well (containing culture medium, cell, CCK-8 and compound); • Ac: Controlled well (containing culture medium, cell and CCK-8); • Ab: Blank well (Only containing medium and CCK-8).
On the technique in general: Tetrazolium dyes change colour on reduction, which living cells bring about.

A short description of data set [5]: In vivo xenograft study, MDA-MB-468, mice weights. As to conditions: MDA-MB-468 xenograft in BALB/c-nu mice, FIGS. 3 and 5. How it is done: (§3) MDA-MB-468 cells (human breast cancer) in its log growth phase were implanted in BALB/c-nu mice. When the tumor volume was approximately 50-150 mm^3, the mice were randomized into four groups, each include 8 mice. The four groups were treated with vehicle, Ref. 1, 4f, and Ref. 2, respectively, and the tumor sizes were measured two to three times each week and the mice were also weighted.

Data set [6] has as its system MDA-MB-468 cells (human breast cancer) implanted in BALB/c-nu mice. Kind of data set: In vivo xenograft study, MDA-MB-468, tumor sizes. The note with it: MDA-MB-468 xenograft in BALB/c-nu mice, FIGS. 2 and 4. How it is done: as §3
In data set [7] the test system is A549. As to the kind of experiment: Cell culture and cytotoxicity assay (CTG), A549. It counts as cell-based. As to conditions: Homo sapiens, A549, exposure 72 hours. How it is done:
as §1, §2

A short description of data set [8]: In vivo mouse model, MDA-MB-453, mice weights. The note with it: MDA-MB-453 mouse model, FIG. 7, dose of this group not given. An excerpt:
MDA-MB-453 cells (human breast cancer) were also studied in a mouse model. […] FIG. 7.

A short description of data set [9]: In vivo mouse model, Hep3B, mice weights. The note with it: FIG. 9, dose of this group not given. An excerpt: Hep3B cells (human liver cancer) were also studied in a mouse model. […] FIG. 9.

Take `Cc1ccc(S(=O)(=O)Nc2nc3ccccc3nc2Nc2ccc3nsnc3c2)c(F)c1` [Compound 4, N-[3-(benzo[1,2,5]thiadiazol-5-ylamino)-quinoxalin-2-yl]-2-fluoro-4-methyl-benzenesulfonamide]: the concentration for half-maximal inhibition (IC50) (in general, the point on the concentration scale where inhibition reaches its midpoint) in data set [1] is 114000 nM; in data set [2], 4250 nM; in data set [3], > 50000 nM.

Turning to `O=S(=O)(Nc1nc2ccccc2nc1Nc1ccc2nsnc2c1)c1ccc(F)c(F)c1` [Compound 7], in data set [4], the half-inhibitory concentration (IC50) came to 0.469 µM. This counts as sub-micromolar.

On to `O=S(=O)(Nc1nc2ccccc2nc1Nc1ccc2nsnc2c1)c1ccc(Br)c(F)c1` [Compound 8], for which, in data set [4], the 50% inhibitory concentration (IC50) came to 0.811 µM.

Compound `COc1ccc(S(=O)(=O)Nc2nc3ccccc3nc2Nc2ccc3nsnc3c2)cc1F` [Compound 9] displayed a concentration for half-maximal inhibition (IC50) in data set [4] of 1.4 µM.

On to `CCNc1ccc(S(=O)(=O)Nc2nc3ccccc3nc2Nc2ccc3nsnc3c2)cc1F` [Compound 10], for which the IC50 in [4] is 7.09 µM.

On to `Cc1ccc(S(=O)(=O)Nc2nc3ccccc3nc2Nc2ccc3nsnc3c2)cc1` [Ref. 1, reference compound], for which the half-maximal inhibitory concentration (IC50) in [4] is 2.67 µM; in data set [2] it was 2060 nM; in data set [3], 28200 nM; in data set [7], > 50000 nM. For the same compound, in data set [5], the “weight changes of mice” value was “no significant weight changes”. Besides, the “anticancer activity (tumor sizes) versus vehicle” value in [6] is on record as “no significant difference”.

Consider `COc1ccc(Cl)c(Nc2nc3ccccc3nc2NS(=O)(=O)c2cccc(NC(=O)C(C)(C)N)c2)c1` [Ref. 2, reference compound], for which the concentration for half-maximal inhibition (IC50) is 50000 to 100000 nM in [1]; 4.91 µM in data set [4]; 12500 to 25000 nM in [2]; 25000 to 50000 nM in data set [3]; 25000 to 50000 nM in data set [7]. In addition, the weight changes entry in data set [8] and in data set [9] was “no difference in weight changes” in each case. In addition, in data set [5], the “weight changes of mice” value is “no significant weight changes”. For the same compound, the “anticancer activity (tumor sizes) versus vehicle” value in [6] is recorded as “no significant difference”.
